Data reported in ChEMBL document CHEMBL1201862, “PubChem BioAssay data set” (2004).
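Each compound was tested at five concentrations against cells in 96-well plates for 48 hours. At the GI50, growth is halved.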 Activity calls are given as the source filed them. Cut-off read from the data, not from the text of the source: active = GI50 up to about 1.1 µM and inactive = higher.

Assays:
Assay in all cases: DTP human tumour cell line panel, 48 h
COLO 205 = system: COLO 205
DU-145 = system: DU-145
HCT-116 = system: HCT-116
HOP-62 = system: HOP-62
HOP-92 = system: HOP-92
K562 = system: K562
KM12 = system: KM12
LOX IMVI = system: LOX IMVI
MDA-MB-435 = system: MDA-MB-435
NCI-H226 = system: NCI-H226
NCI-H460 = system: NCI-H460
NCI-H522 = system: NCI-H522
NCI/ADR-RES = system: NCI/ADR-RES
OVCAR-3 = system: OVCAR-3
OVCAR-4 = system: OVCAR-4
PC-3 = system: PC-3
SF-539 = system: SF-539
SK-MEL-2 = system: SK-MEL-2
SNB-19 = system: SNB-19
SR = system: SR

Measured: GI50

COc1ccc(/C=C2\CCC(Cc3ccccc3)(CN(C)C)C2=O)cc1 (stereo not given)
inactive: COLO 205 37.8 µM | DU-145 > 70.8 µM | HCT-116 28.8 µM | HOP-62 > 100 µM | HOP-92 53.3 µM | K562 26.4 µM | KM12 41.1 µM | LOX IMVI 24.5 µM | MDA-MB-435 32.1 µM | NCI-H226 42 µM | NCI-H460 67.3 µM | NCI-H522 31.8 µM | NCI/ADR-RES 42.2 µM | OVCAR-3 43.7 µM | OVCAR-4 56.8 µM | PC-3 83.9 µM | SF-539 57 µM | SK-MEL-2 60.4 µM | SNB-19 51.4 µM | SR 20.6 µM

Cn1c(=O)[nH]c2nccnc2c1=O
inactive: COLO 205 > 10 µM | DU-145 > 10 µM | HCT-116 > 10 µM | HOP-62 > 10 µM | HOP-92 > 10 µM | K562 > 10 µM | KM12 > 10 µM | LOX IMVI > 10 µM | MDA-MB-435 > 10 µM | NCI-H226 > 10 µM | NCI-H460 > 10 µM | NCI-H522 > 10 µM | NCI/ADR-RES > 10 µM | OVCAR-3 > 10 µM | OVCAR-4 > 10 µM | PC-3 > 10 µM | SF-539 > 10 µM | SK-MEL-2 > 10 µM | SNB-19 > 10 µM | SR > 10 µM

COc1cc2nc3n(c2cc1OC)C(O)c1c(Cl)nc(SC)nc1S3 (stereo not given)
inactive: COLO 205 4.78 µM | DU-145 2.39 µM | HCT-116 2.46 µM | HOP-62 3.72 µM | HOP-92 12.2 µM | K562 3.03 µM | KM12 2.68 µM | LOX IMVI 1.7 µM | MDA-MB-435 4.01 µM | NCI-H226 3.35 µM | NCI-H460 3.44 µM | NCI-H522 1.72 µM | NCI/ADR-RES 3.36 µM | OVCAR-3 3.12 µM | OVCAR-4 5.77 µM | PC-3 2.75 µM | SF-539 2.4 µM | SK-MEL-2 2 µM | SNB-19 6.47 µM | SR 3.68 µM

COC(=O)CC1(O)C=CC(=O)C=C1 [JACARANONE]
inactive: COLO 205 4.68 µM | DU-145 5.06 µM | HCT-116 9.77 µM | HOP-62 6.76 µM | HOP-92 8.07 µM | K562 3.76 µM | KM12 1.74 µM | LOX IMVI 2.51 µM | MDA-MB-435 6.47 µM | NCI-H226 8.61 µM | NCI-H460 2.2 µM | NCI-H522 1.39 µM | NCI/ADR-RES 3.63 µM | OVCAR-3 3.91 µM | OVCAR-4 3.82 µM | PC-3 2.57 µM | SF-539 3.53 µM | SK-MEL-2 4.63 µM | SNB-19 5.48 µM | SR 2.47 µM
